Source: PubChem BioAssay AID256 (DTP/NCI, 2004)
Values joined by “and” are separate entries in the source; they are usually repeats but may differ in a detail not shown here. Identical values can stand only once. Inconclusive results and toxic doses are left out.

Tested on: CD2F1 mice, L1210 leukemia ip, survival T/C
Experiment: NCI In Vivo Anticancer Drug Screen. Data for tumor model L1210 Leukemia (intraperitoneal) in CD2F1 (CDF1) mice
Settings: higher = longer survival
In short: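 Activity against a transplanted murine tumor was judged by comparing the compound group with a vehicle group. The outcome in the treated animals was divided by that in the controls.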

[1] = endpoint: mean survival time, dose: 50.0 mg/kg/injection, schedule: Q01DX009 (ip), vehicle: saline
[2] = endpoint: mean survival time, dose: 100.0 mg/kg/injection, schedule: Q01DX009 (ip), vehicle: saline
[3] = endpoint: mean survival time, dose: 100.0 mg/kg/injection, schedule: Q04DX003 (ip), vehicle: saline
[4] = endpoint: mean survival time, dose: 200.0 mg/kg/injection, schedule: Q04DX003 (ip), vehicle: saline

In the case of COC12C(COC(N)=O)C3=C(C(=O)C(C)=C(NC4CONC4=O)C3=O)N1CC1NC12 (stereo not given), the T/C (endpoint: mean survival time, dose: 1.5 mg/kg/injection, schedule: Q01DX001 (ip), vehicle: water) was 97 % of control, the T/C (endpoint: mean survival time, dose: 3.0 mg/kg/injection, schedule: Q01DX001 (ip), vehicle: water) was 98 % of control and the T/C (endpoint: mean survival time, dose: 6.0 mg/kg/injection, schedule: Q01DX001 (ip), vehicle: water) was 95 % of control. The T/C (endpoint: mean survival time, dose: 12.0 mg/kg/injection, schedule: Q01DX001 (ip), vehicle: water) was 98 % of control, the T/C (endpoint: mean survival time, dose: 24.0 mg/kg/injection, schedule: Q01DX001 (ip), vehicle: water) was 97 % of control and the T/C (endpoint: mean survival time, dose: 50.0 mg/kg/injection, schedule: Q01DX001 (ip), vehicle: distilled water + Tween-80) was 112 % of control. For the same molecule, the T/C (endpoint: mean survival time, dose: 100.0 mg/kg/injection, schedule: Q01DX001 (ip), vehicle: distilled water + Tween-80) was 114 % of control.
In the case of COc1cccc(CC(C)N)c1OC (stereo not given), the T/C (endpoint: mean survival time, dose: 25.0 mg/kg/injection, schedule: Q01DX009 (ip), vehicle: saline) was 98 % of control, the T/C [1] was 95 % of control and the T/C [2] was 93 % of control. For the same molecule, the T/C (endpoint: mean survival time, dose: 100.0 mg/kg/injection, schedule: Q04DX003 (ip), vehicle: saline with Tween-80) was 95 % of control.
Cc1cc2c(cc1C)C(=O)c1ccccc1C2=O was tested, and the T/C [1] was 102 % of control, the T/C [2] was 93 % of control and the T/C [3] was 97 % of control. The T/C [4] was 89 % of control.
O=C(C[n+]1cccc(C(=O)Nc2ccccc2)c1)NCc1ccccc1 was tested, and the T/C [3] was 100 % of control, the T/C [4] was 96 % of control and the T/C (endpoint: mean survival time, dose: 400.0 mg/kg/injection, schedule: Q04DX003 (ip), vehicle: saline) was 96 % of control.
For O=C1NCC(c2ccccc2)(C2CC2)O1 (stereo not given), the T/C (endpoint: mean survival time, dose: 100.0 mg/kg/injection, schedule: Q04DX002 (ip), vehicle: saline with Tween-80) was 100 % of control, the T/C (endpoint: mean survival time, dose: 200.0 mg/kg/injection, schedule: Q04DX002 (ip), vehicle: saline with Tween-80) was 100 % of control and the T/C (endpoint: mean survival time, dose: 400.0 mg/kg/injection, schedule: Q04DX002 (ip), vehicle: saline with Tween-80) was 100 % of control.
O=C(O)c1ccc(C(=O)O)c(C(=O)O)c1.[NH-]C1CCCCC1[NH-].[Pt+2] was tested, and the T/C (endpoint: mean survival time, dose: 0.39 mg/kg/injection, schedule: Q01DX009 (ip), vehicle: sodium bicarbonate) was 123 % of control, the T/C (endpoint: mean survival time, dose: 0.39 mg/kg/injection, schedule: Q04DX003 (ip), vehicle: other) was 115 % of control and the T/C (endpoint: mean survival time, dose: 0.78 mg/kg/injection, schedule: Q01DX009 (ip), vehicle: sodium bicarbonate) was 174 % of control and 200 % of control. The T/C (endpoint: mean survival time, dose: 0.78 mg/kg/injection, schedule: Q04DX003 (ip), vehicle: other) was 120 % of control, the T/C (endpoint: mean survival time, dose: 0.78 mg/kg/injection, schedule: Q04DX003 (ip), vehicle: sodium bicarbonate) was 119 % of control and the T/C (endpoint: mean survival time, dose: 1.56 mg/kg/injection, schedule: Q01DX009 (ip), vehicle: sodium bicarbonate) was 172 % of control and 325 % of control. For the same molecule, the T/C (endpoint: mean survival time, dose: 1.56 mg/kg/injection, schedule: Q04DX003 (ip), vehicle: sodium bicarbonate) was 119 % of control, the T/C (endpoint: mean survival time, dose: 3.12 mg/kg/injection, schedule: Q01DX009 (ip), vehicle: sodium bicarbonate) was 155 % of control and 196 % of control and 251 % of control and the T/C (endpoint: mean survival time, dose: 3.13 mg/kg/injection, schedule: Q04DX003 (ip), vehicle: other) was 183 % of control. For the same molecule, the T/C (endpoint: mean survival time, dose: 6.25 mg/kg/injection, schedule: Q01DX009 (ip), vehicle: sodium bicarbonate) was 190 % of control, the T/C (endpoint: mean survival time, dose: 6.25 mg/kg/injection, schedule: Q04DX003 (ip), vehicle: other) was 240 % of control and 263 % of control and the T/C (endpoint: mean survival time, dose: 6.25 mg/kg/injection, schedule: Q04DX003 (ip), vehicle: sodium bicarbonate) was 158 % of control. The T/C (endpoint: mean survival time, dose: 8.0 mg/kg/injection, schedule: Q01DX005 (oral), vehicle: sodium bicarbonate) was 113 % of control and 120 % of control and 101 % of control, the T/C (endpoint: mean survival time, dose: 12.5 mg/kg/injection, schedule: Q01DX009 (ip), vehicle: sodium bicarbonate) was 227 % of control and 97 % of control and the T/C (endpoint: mean survival time, dose: 12.5 mg/kg/injection, schedule: Q04DX003 (ip), vehicle: other) was 273 % of control and 291 % of control. The T/C (endpoint: mean survival time, dose: 12.5 mg/kg/injection, schedule: Q04DX003 (ip), vehicle: sodium bicarbonate) was 247 % of control, the T/C (endpoint: mean survival time, dose: 16.0 mg/kg/injection, schedule: Q01DX005 (oral), vehicle: sodium bicarbonate) was 100 % of control and 105 % of control and the T/C (endpoint: mean survival time, dose: 25.0 mg/kg/injection, schedule: Q04DX003 (ip), vehicle: other) was 328 % of control and 444 % of control. The T/C (endpoint: mean survival time, dose: 25.0 mg/kg/injection, schedule: Q04DX003 (ip), vehicle: sodium bicarbonate) was 186 % of control, the T/C (endpoint: mean survival time, dose: 32.0 mg/kg/injection, schedule: Q01DX005 (oral), vehicle: sodium bicarbonate) was 108 % of control and the T/C (endpoint: mean survival time, dose: 64.0 mg/kg/injection, schedule: Q01DX005 (oral), vehicle: sodium bicarbonate) was 108 % of control. For the same molecule, the T/C (endpoint: mean survival time, dose: 128.0 mg/kg/injection, schedule: Q01DX005 (oral), vehicle: sodium bicarbonate) was 113 % of control and 103 % of control, the T/C (endpoint: mean survival time, dose: 256.0 mg/kg/injection, schedule: Q01DX005 (oral), vehicle: sodium bicarbonate) was 116 % of control and 121 % of control and 111 % of control and the T/C (endpoint: median survival time, dose: 0.58 mg/kg/injection, schedule: Q01DX009 (ip), vehicle: sodium bicarbonate) was 156 % of control. For the same molecule, the T/C (endpoint: median survival time, dose: 0.87 mg/kg/injection, schedule: Q01DX009 (ip), vehicle: water) was 101 % of control and 112 % of control, the T/C (endpoint: median survival time, dose: 1.2 mg/kg/injection, schedule: Q01DX009 (ip), vehicle: sodium bicarbonate) was 361 % of control and the T/C (endpoint: median survival time, dose: 1.3 mg/kg/injection, schedule: Q01DX009 (ip), vehicle: water) was 115 % of control and 107 % of control. For the same molecule, the T/C (endpoint: median survival time, dose: 1.8 mg/kg/injection, schedule: Q01DX009 (ip), vehicle: sodium bicarbonate) was 313 % of control, the T/C (endpoint: median survival time, dose: 2.0 mg/kg/injection, schedule: Q01DX009 (ip), vehicle: water) was 122 % of control and 101 % of control and the T/C (endpoint: median survival time, dose: 2.7 mg/kg/injection, schedule: Q01DX009 (ip), vehicle: sodium bicarbonate) was 240 % of control. The T/C (endpoint: median survival time, dose: 3.0 mg/kg/injection, schedule: Q01DX009 (ip), vehicle: sodium bicarbonate) was 357 % of control, the T/C (endpoint: median survival time, dose: 3.13 mg/kg/injection, schedule: Q04DX003 (ip), vehicle: other) was 154 % of control and 280 % of control and the T/C (endpoint: median survival time, dose: 3.13 mg/kg/injection, schedule: Q04DX003 (ip), vehicle: sodium bicarbonate) was 174 % of control. For the same molecule, the T/C (endpoint: median survival time, dose: 3.5 mg/kg/injection, schedule: Q01DX009 (ip), vehicle: water) was 107 % of control, the T/C (endpoint: median survival time, dose: 4.0 mg/kg/injection, schedule: Q01DX009 (ip), vehicle: sodium bicarbonate) was 166 % of control and the T/C (endpoint: median survival time, dose: 4.5 mg/kg/injection, schedule: Q01DX009 (ip), vehicle: sodium bicarbonate) was 237 % of control. The T/C (endpoint: median survival time, dose: 5.0 mg/kg/injection, schedule: Q04DX003 (ip), vehicle: sodium bicarbonate) was 176 % of control and 186 % of control and 195 % of control, the T/C (endpoint: median survival time, dose: 5.24 mg/kg/injection, schedule: Q04DX003 (ip), vehicle: sodium bicarbonate) was 158 % of control and the T/C (endpoint: median survival time, dose: 5.3 mg/kg/injection, schedule: Q01DX009 (ip), vehicle: sodium bicarbonate) was 182 % of control. For the same molecule, the T/C (endpoint: median survival time, dose: 6.25 mg/kg/injection, schedule: Q04DX003 (ip), vehicle: other) was 202 % of control and 313 % of control, the T/C (endpoint: median survival time, dose: 6.25 mg/kg/injection, schedule: Q04DX003 (ip), vehicle: saline) was 265 % of control and the T/C (endpoint: median survival time, dose: 6.25 mg/kg/injection, schedule: Q04DX003 (ip), vehicle: sodium bicarbonate) was 154 % of control and 348 % of control. The T/C (endpoint: median survival time, dose: 7.78 mg/kg/injection, schedule: Q04DX003 (ip), vehicle: sodium bicarbonate) was 198 % of control, the T/C (endpoint: median survival time, dose: 8.0 mg/kg/injection, schedule: Q01DX009 (ip), vehicle: water) was 180 % of control and the T/C (endpoint: median survival time, dose: 8.3 mg/kg/injection, schedule: Q01DX009 (ip), vehicle: water) was 277 % of control and 108 % of control. The T/C (endpoint: median survival time, dose: 10.0 mg/kg/injection, schedule: Q04DX003 (ip), vehicle: sodium bicarbonate) was 231 % of control and 247 % of control and 430 % of control, the T/C (endpoint: median survival time, dose: 11.81 mg/kg/injection, schedule: Q04DX003 (ip), vehicle: sodium bicarbonate) was 295 % of control and the T/C (endpoint: median survival time, dose: 12.0 mg/kg/injection, schedule: Q01DX009 (ip), vehicle: water) was 298 % of control. The T/C (endpoint: median survival time, dose: 12.5 mg/kg/injection, schedule: Q04DX003 (ip), vehicle: other) was 202 % of control, the T/C (endpoint: median survival time, dose: 12.5 mg/kg/injection, schedule: Q04DX003 (ip), vehicle: saline) was 361 % of control and the T/C (endpoint: median survival time, dose: 12.5 mg/kg/injection, schedule: Q04DX003 (ip), vehicle: sodium bicarbonate) was 309 % of control and 348 % of control. The T/C (endpoint: median survival time, dose: 13.0 mg/kg/injection, schedule: Q04DX003 (ip), vehicle: sodium bicarbonate) was 231 % of control, the T/C (endpoint: median survival time, dose: 16.0 mg/kg/injection, schedule: Q01DX009 (ip), vehicle: water) was 240 % of control and the T/C (endpoint: median survival time, dose: 17.74 mg/kg/injection, schedule: Q04DX003 (ip), vehicle: sodium bicarbonate) was 214 % of control. The T/C (endpoint: median survival time, dose: 20.0 mg/kg/injection, schedule: Q01DX001 (ip), vehicle: sodium bicarbonate) was 174 % of control, the T/C (endpoint: median survival time, dose: 25.0 mg/kg/injection, schedule: Q04DX003 (ip), vehicle: saline) was 361 % of control and the T/C (endpoint: median survival time, dose: 25.0 mg/kg/injection, schedule: Q04DX003 (ip), vehicle: sodium bicarbonate) was 357 % of control. For the same molecule, the T/C (endpoint: median survival time, dose: 26.64 mg/kg/injection, schedule: Q04DX003 (ip), vehicle: sodium bicarbonate) was 345 % of control, the T/C (endpoint: median survival time, dose: 30.0 mg/kg/injection, schedule: Q01DX001 (ip), vehicle: sodium bicarbonate) was 170 % of control and 175 % of control and 333 % of control and the T/C (endpoint: median survival time, dose: 30.0 mg/kg/injection, schedule: Q04DX003 (ip), vehicle: sodium bicarbonate) was 323 % of control. The T/C (endpoint: median survival time, dose: 40.0 mg/kg/injection, schedule: Q01DX001 (ip), vehicle: sodium bicarbonate) was 198 % of control and 714 % of control, the T/C (endpoint: median survival time, dose: 50.0 mg/kg/injection, schedule: Q01DX001 (ip), vehicle: sodium bicarbonate) was 210 % of control and the T/C (endpoint: median survival time, dose: 50.0 mg/kg/injection, schedule: Q04DX003 (ip), vehicle: sodium bicarbonate) was 345 % of control. The T/C (endpoint: median survival time, dose: 64.0 mg/kg/injection, schedule: Q01DX009 (ip), vehicle: water) was 89 % of control.
